One series deals with PC-3 cells. The series is described as follows: In vitro cytotoxicity, MTS assay, PC-3. The class given is cell-based, human. The settings on record: 72 h, extremely low PSMA expression, range 0.5 to 800 nM, triplicates. On the procedure: (§1) The resulting bimodal conjugates were tested in vitro on three different PCa cell lines. We used LNCaP cells with high PSMA expression, 22Rv1 cells with moderate PSMA expression and PC-3 cells with extremely low PSMA expression. Different levels of PSMA expression in 22Rv1 and LNCaP cell lines allows evaluation of the effect of the level of expression on the toxicity of the target drugs. PSMA-negative cell line PC-3 allows a qualitative assessment of non-specific toxicity of the obtained compounds.
(§2) The cytotoxicity of the investigated substances was tested using the MTS assay with some modifications. Cells were seeded in the 96-well plates (Corning, New York, NY, USA) at concentration of 7000 cells per well for PC-3 culture, 12,000 cells per well for LNCaP cells and 20,000 cells per well for 22Rv1 line. The cells were counted using the automatic cell counter EVE. All cell lines were purchased from the American Type Culture Collection (ATCC, Manassas, VA, USA). After 1 day, serial dilutions of tested substances were added to the cells. Cell culture medium with addition of DMSO in appropriate concentrations was used as a negative control. DMSO (30%) was added in culture medium as a positive control. Cells were then incubated during 72 h at 37 °C and 5% CO2. Later, the culture medium from each well was removed and 20 μL of MTS reagent (CellTiter 96 AQueous Non-Radioactive Cell Proliferation Assay, Promega) were added to each well with 100 μL of new culture medium. After 4 h incubation at 37 °C in darkness, the absorbance of the solution was measured at 490 nm wavelength using Thermo Scientific Multiskan GO spectrometer. Cell viability was calculated as a percentage compared to control cells. The absorbance of MTS reagent in culture medium without cells was taken as zero. […] Experiments were performed in triplicates. Data were analyzed using Prism 9—GraphPad version 9.2.0 software. p values < 0.05 were considered significant.
On the technique in general: Formazan colour is commonly taken as a measure of viable cells.

The next series deals with LNCaP cells. The series is described as follows: In vitro cytotoxicity, MTS assay, LNCaP. Type of series: cell-based. Conditions: 72 h, high PSMA expression, range 0.5 to 800 nM, triplicates. Here is the method: as §1, §2
In a further series the test system is 22Rv1 cells. As to the kind of experiment: In vitro cytotoxicity, MTS assay, 22Rv1. The class given is cell-based, human. Conditions: 72 h, moderate PSMA expression, range 0.5 to 800 nM, triplicates. On the procedure:
as §1, §2

Results on two molecules are retold here after paper PMC10380083, “Synthesis of Prostate-Specific Membrane Antigen-Targeted Bimodal Conjugates of Cytotoxic Agents and Antiandrogens and Their Comparative Assessment with Monoconjugates” (International Journal of Molecular Sciences, 2023).

*1 amine or outer side, *2 acyl side, *3 side chain or, on linkers, in order; H or OH if unused. Where a SMILES comes first, the peptide text is derived from it. [ ]: non-standard residue; d: D form. The star is where a group is joined. GluureaLys(ε-3-ClBenzyl) = O=C(O)CC[C@H](NC(=O)N[C@@H](CCCCN(Cc1cccc(Cl)c1)*)C(=O)O)C(=O)O; Dolaproine = CO[C@@H]([C@@H]1CCCN1)[C@@H](C)C(=O)O; Dil = CC[C@H](C)[C@H](NC)[C@@H](CC(=O)O)OC; X2 = O=C(CCCc1cn(CCCN[*:1])nn1)[*:2]; PABC = O=C(OCc1ccc(N[*:1])cc1)[*:2]; X1 = C[C@@H](N*)[C@@H](O)c1ccccc1; Cit = NC(=O)NCCC[C@H](N)C(=O)O; Suc = O=C(CCC(=O)[*:2])[*:1]; NMeV = CN[C@H](C(=O)O)C(C)C; Ahx = NCCCCCC(=O)O

In the case of `CC[C@H](C)[C@@H]([C@@H](CC(=O)N1CCC[C@H]1[C@H](OC)[C@@H](C)C(=O)N[C@H](C)[C@@H](O)c1ccccc1)OC)N(C)C(=O)[C@@H](NC(=O)[C@H](C(C)C)N(C)C(=O)OCc1ccc(NC(=O)[C@H](CCCNC(N)=O)NC(=O)[C@@H](NC(=O)CCCc2cn(CCCNC(=O)[C@H](Cc3ccc(O)cc3)NC(=O)[C@H](Cc3ccccc3)NC(=O)CCC(=O)NCCCCCC(=O)N(CCCC[C@H](NC(=O)N[C@@H](CCC(=O)O)C(=O)O)C(=O)O)Cc3cccc(Cl)c3)nn2)C(C)C)cc1)C(C)C` [I, reference compound] ({GluureaLys(ε-3-ClBenzyl)-Ahx-Suc}-FY[X2]V[Cit][PABC][NMeV]V[Dil][Dolaproine]-X1), the “CC50, PC-3” value in the series on PC-3 cells is listed as over 800 nM. Besides, in the series on LNCaP cells, the “CC50, LNCaP” value is given as 77.7 ± 1.3 nM. In addition, in the series with 22Rv1 cells, the “CC50, 22Rv1” value is 78.5 ± 0.8 nM.
Turning to `CC[C@H](C)[C@@H]([C@@H](CC(=O)N1CCC[C@H]1[C@H](OC)[C@@H](C)C(=O)N[C@H](C)[C@@H](O)c1ccccc1)OC)N(C)C(=O)[C@@H](NC(=O)[C@@H](NC)C(C)C)C(C)C` [MMAE, Monomethyl Auristatin E, reference compound] (H-[NMeV]V[Dil][Dolaproine]-X1), the “CC50, PC-3” value in the series with PC-3 cells is over 800 nM. Also, the “CC50, LNCaP” value with LNCaP cells worked out at 0.69 ± 0.1 nM. The “CC50, 22Rv1” value in the series on 22Rv1 cells was determined as 0.42 ± 0.2 nM.
